The text below walks through data of patent US20050256210A1, “Compounds with activity at estrogen receptors” (priority 2004, published 2005).

Each structure is given as a SMILES string. Read-outs that look alike come from different tables or passages of the source. Some results are limits rather than exact numbers.

Data set [1] has as its system immature female Sprague-Dawley rats. Description: Uterotrophic in vivo assay (uterine weight). Details: species or system rat. To be noted: 10, 30 or 100 mg/kg s.c. daily for 3 days; FIG. 4. As for the experimental part: The effect of ERB-002 on uterine weight was assessed based on the previously published method of Harris et al., Endocrin, 2003, 143:4172, which is hereby incorporated by reference in its entirety. Naïve, female Sprague-Dawley rats (30-40 g; n=6 per group) served as subjects. Rats received daily subcutaneous injections of vehicle (100% DMSO), PPT (1.0 mg/rat)), a reportedly selective ERα agonist (Stauffer, 2000, J Med Chem 43:4934) or various doses of ERB-002 (10, 30 or 100 mg/kg) for a total of 3 days. Approximately 24 hours after the final injection, the rats were sacrificed, the uteri removed, trimmed of adhesions, fluid expelled and then weighed. Uterine weight was normalized as a percentage of total body weight by the following formula: % TBW=[(uterus weight (in mg)[…])/(body weight (in g))]*100.

Data set [2] deals with T1, Estrogen receptor alpha (ERα) (Homo sapiens, UniProt P03372).
T1 construct: expressed in transfected cells; host or cells: NIH3T3
T1 sequence (P03372 1-595): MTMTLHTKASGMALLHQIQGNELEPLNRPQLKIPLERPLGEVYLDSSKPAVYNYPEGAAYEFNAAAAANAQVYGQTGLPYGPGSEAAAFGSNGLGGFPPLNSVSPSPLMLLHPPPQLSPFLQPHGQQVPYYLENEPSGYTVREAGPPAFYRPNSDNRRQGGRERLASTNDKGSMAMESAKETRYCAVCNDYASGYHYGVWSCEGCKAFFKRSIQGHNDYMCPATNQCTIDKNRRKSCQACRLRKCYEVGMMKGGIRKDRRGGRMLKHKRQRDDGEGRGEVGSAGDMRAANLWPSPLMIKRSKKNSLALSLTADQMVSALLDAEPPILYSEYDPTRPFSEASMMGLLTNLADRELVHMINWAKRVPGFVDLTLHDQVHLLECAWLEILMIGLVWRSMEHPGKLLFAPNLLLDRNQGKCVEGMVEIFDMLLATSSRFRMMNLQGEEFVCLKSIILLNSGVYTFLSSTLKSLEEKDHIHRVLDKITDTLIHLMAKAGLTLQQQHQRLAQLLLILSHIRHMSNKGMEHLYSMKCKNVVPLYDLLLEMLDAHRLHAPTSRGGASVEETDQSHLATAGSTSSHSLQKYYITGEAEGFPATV
Description: Receptor Selection and Amplification Technology (R-SAT) functional receptor assay, ERα. The format is cell-based. Particulars: for Emax / % Efficacy ERα: NIH3T3 cells, efficacy relative to the reference ligand Estrone; for EC50 / pEC50 ERα: transfected NIH3T3 cells, agonist activity. As for the experimental part: (§1) The functional receptor assay, Receptor Selection and Amplification Technology (R-SAT™), was used with minor modifications from the procedure described in U.S. Pat. No. 5,707,798, which is hereby incorporated by reference in its entirety, to screen compounds for efficacy at the Estrogen receptors alpha and beta (ERα, ERβ). NIH3T3 cells were grown in roller bottles to 70-80% confluence. Cells were then transfected for 12-16 h with plasmid DNAs using Polyfect (Qiagen Inc.) as per the manufacturer's protocol. R-SAT assays were typically performed by transfecting 30 ug/bottle of receptor and 50 ug/bottle of β-galactosidase plasmid DNA. All receptor and helper constructs used were in mammalian expression vectors. Helpers are defined as signaling molecules that modulate both ligand-dependent and/or ligand-independent function of the ER receptors, typically co-activators and kinases. NIH3T3 cells were transfected for 12-16 h, then trypsinized and frozen in DMSO. Frozen cells were later thawed, plated at 10,000-40,000 cells per well of a 96 well plate containing 4-(1-Phenyl-cyclohexyl)-phenol. Cells were then grown in a humidified atmosphere with 5% ambient CO2 for five days. Media was then removed from the plates and marker gene activity was measured by the addition of the β-galactosidase substrate o-nitrophenyl β-D-galactopyranoside (ONPG, in PBS with 5% NP-40). The resulting colorimetric reaction was measured in a spectrophotometric plate reader (Titertek Inc.) at 420 nM. All data were analyzed using the computer program XLFit (IDBSm).
These experiments provided a molecular profile, or fingerprint, for each agent tested at the human Estrogen receptors.

In data set [3] the test system is male Sprague-Dawley rats. As to the kind of experiment: CFA induced arthritis rat model assay (hot plate latency, paw thickness). To be noted: 1.0, 3.0 or 10 mg/kg s.c. daily from Day 4 after CFA. The format is in vivo. The procedure:
Naïve, male Sprague-Dawley rats (225-250 g; n=6 per group) served as subjects. Response latencies to a noxious thermal stimulus were measured using the 52° C. hot plate test. After obtaining baseline responses, 0.1 ml of Freund's complete adjuvant (CFA) or vehicle (inactivated CFA (iCFA)) was injected into the dorsal surface of the left hind paw. Response latencies were again measured 4 days following CFA (or iCFA) administration, a time point when thermal hyperalgesia is stable. A significant decrease in the hot plate latency was interpreted as the presence of thermal hyperalgesia. Following testing, thickness of both hind paws were measured (using a micrometer) in order to quantify possible edema formation at the injection site. Various doses of 4-(1-Phenyl-cyclohexyl)-phenol (ERB-002) (1.0, 3.0 or 10 mg/kg) or vehicle (DMSO) were administered (s.c.) following testing on Day 4, and then daily following testing for a period of 3 days.

For data set [4], the target named is T2, Estrogen receptor beta (ERβ) (Homo sapiens, UniProt Q92731).
T2 construct: expressed in transfected cells; host or cells: NIH3T3
T2 sequence (Q92731 whole entry): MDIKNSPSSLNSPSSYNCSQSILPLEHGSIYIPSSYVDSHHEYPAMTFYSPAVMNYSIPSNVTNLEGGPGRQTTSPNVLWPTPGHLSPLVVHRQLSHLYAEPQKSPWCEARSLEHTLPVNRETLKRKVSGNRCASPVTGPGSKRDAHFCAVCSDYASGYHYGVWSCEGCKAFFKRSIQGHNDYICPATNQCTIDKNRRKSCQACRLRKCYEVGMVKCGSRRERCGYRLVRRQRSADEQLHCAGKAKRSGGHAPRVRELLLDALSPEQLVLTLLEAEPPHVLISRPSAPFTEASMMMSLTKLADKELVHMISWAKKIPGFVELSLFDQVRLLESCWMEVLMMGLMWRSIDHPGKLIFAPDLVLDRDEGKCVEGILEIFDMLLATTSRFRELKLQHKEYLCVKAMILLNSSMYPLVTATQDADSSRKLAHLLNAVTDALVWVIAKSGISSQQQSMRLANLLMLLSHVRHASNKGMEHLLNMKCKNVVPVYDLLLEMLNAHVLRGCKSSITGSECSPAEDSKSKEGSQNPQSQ
Description: Receptor Selection and Amplification Technology (R-SAT) functional receptor assay, ERβ. The format is cell-based. The procedure:
as §1, with “NIH3T3” for “The functional receptor assay, Receptor Selection and Amplification Technology (R-SAT™), was used with minor modifications from the procedure described in U.S. Pat. No. 5,707,798, which is hereby incorporated by reference in its entirety, to screen compounds for efficacy at the Estrogen receptors alpha and beta (ERα, ERβ). NIH3T3”, “The resulting colorimetric reaction was measured in a spectrophotometric plate reader (Titertek Inc.) at 420 nM.” left out

Where [5] appears, read: R-SAT, NIH3T3 cells, efficacy relative to the reference ligand Estrone.
[6] abbreviates: R-SAT, transfected NIH3T3 cells, agonist activity.
The mark [7] stands for this setting: R-SAT, NIH3T3 cells, efficacy relative to the reference ligand Estrone, read-out: % Efficacy ERβ.
The mark [8] stands for this setting: R-SAT, transfected NIH3T3 cells, agonist activity, read-out: pEC50 ERβ (converted).

Regarding `Oc1ccc(C2(c3ccccc3)CCCCC2)cc1` [ERB-002, 4-(1-Phenylcyclohexyl)phenol], the “uterotrophic properties (uterine weight as % of total body weight)” value in data set [1] is “does not display uterotrophic properties”. In addition, the Emax in data set [2] was found to be 50%; in data set [4] (NIH3T3, read-out: % Efficacy ERβ), 85%. Also, the EC50 in data set [2] is 3160 nM; in data set [4], 63.1 nM. Moreover, the “reversal of thermal hyperalgesia (52° C. hot plate latency)” value in data set [3] (FIG. 2) was “dose dependent reversal of thermal hyperalgesia”. Further, the “reversal of edema (paw thickness)” value in data set [3] (FIG. 3) was “dose dependent reversal of edema”. In addition, the “selectivity of activation of ERβ relative to ERα” value in data set [4] (R-SAT, Table 1 and FIG. 1) is “selectively activates Estrogen beta receptor (ERβ) relative to the Estrogen alpha receptor (ERα)”.
In the case of `Oc1ccc(C2(c3ccc(F)c(F)c3)CCCCC2)cc1` [ERB-009], in data set [2], the “% Efficacy ERα” value is on record as 100% and the “pEC50 ERα” value is on record as 5.4. In addition, the “% Efficacy ERβ” value in data set [4] (setting [5]) came to 138%. In addition, the “pEC50 ERβ” value in data set [4] (setting [6]) came to 7.2.
Turning to `Oc1ccc(C2(c3ccc(F)cc3F)CCCCC2)cc1` [ERB-011, 4-(1-(2,4-Difluoro-phenyl)-cyclohexyl)-phenol], the Emax is 20% in data set [2] and 37% in data set [4] (setting [7]). Moreover, the EC50 in data set [2] is above 10000 nM; in data set [4] (setting [8]), 79.4 nM.
The corresponding values for `Oc1ccc(C2(c3ccccc3)CCCCCC2)cc1` [ERB-012, 4-(1-Phenyl-cycloheptyl)-phenol] are 69%, 41%, 631 nM and 126 nM.
For the molecule `Oc1ccc(C2(c3ccc(F)cc3)CCCCCC2)cc1O` [ERB-014, 4-[1-(4-Fluoro-phenyl)-cycloheptyl]-benzene-1,2-diol], the Emax in data set [2] worked out at 120%; in data set [4] (setting [7]) it was 87%. The EC50 in data set [2] was 1260 nM; in data set [4] (setting [8]), 79.4 nM.
For the molecule `Oc1ccc(C2(c3ccccc3)CCCCCCC2)cc1` [ERB-017, 4-(1-Phenyl-cyclooctyl)-phenol], the Emax in data set [2] is 80%; in data set [4] (setting [7]), 46%. Further, the EC50 in data set [2] was 251 nM; in data set [4] (setting [8]), 6.31 nM.
`Oc1ccc(C2(c3ccccc3)CCC(C(F)(F)F)CC2)cc1` (stereo not shown) [ERB-030, 4-(1-Phenyl-[4-(trifluoromethyl)-cyclohexyl])-phenol]: the Emax came out at 95% in data set [2] and 46% in data set [4] (setting [7]). In addition, the EC50 is 2510 nM in data set [2] and 63.1 nM in data set [4] (setting [8]).
In the case of `Oc1ccc(C2(c3ccc(F)cc3)CCC(C(F)(F)F)CC2)cc1` (stereo not shown) [ERB-031, 4-(1-(4-Flourophenyl)-[4-(trifluoromethyl)-cyclohexyl])-phenol], in data set [2], the “% Efficacy ERα” value is 124% and the “pEC50 ERα” value came to 5.6. In addition, in data set [4] (setting [5]), the “% Efficacy ERβ” value turned out to be 62%. In addition, in data set [4] (setting [6]), the “pEC50 ERβ” value is recorded as 6.1.
On to `CC(C)C1CCC(c2ccc(O)cc2)(c2cccc(F)c2)CC1` (stereo not shown) [ERB-037, 4-[1-(3-Fluoro-phenyl)-4-isopropyl-cyclohexyl]-phenol], for which the Emax stood at 114% in data set [2] and 48% in data set [4] (setting [7]). Also, the EC50 in data set [2] is 1580 nM; in data set [4] (setting [8]) it was 7.94 nM.
